Test [1] has as its system BV-2. The test is described as follows: Antiinflammatory activity against mouse BV-2 cells assessed as reduction in LPS-induced NO production at 20 uM incubated for 24 hrs by Griess reagent based assay relative to control. In kind it is functional. Also noted: scale not given: the % may be the effect or the level left. Background: The Griess reaction detects nitrite, a stable product of nitric oxide.

Test [2] can be described thus: Induction of NQO1 expression in mouse Hepa1c1c7 cells. In kind it is functional.
Test [3] concerns the target Keap1/Nrf2 (Homo sapiens, UniProt Q14145). Nature of the test: Inhibition of human Keap1 KELCH domain (321 to 609 residues) expressed in Escherichia coli BL21 DE3 pLysS cells/Nrf2 (unknown origin) protein-protein interaction preincubated with Keap1 for 1 hr followed by Nrf2 addition and measured after 1 hr by fluorescence polarization assay. (In general: Polarisation of emitted light reports the rotation of a fluorescent probe.)

Test [4] deals with HepG2-ARE-C8. The test is described as follows: Activation of Nrf2-ARE pathway in human HepG2-ARE-C8 cells measured for 24 hrs by ARE-luciferase assay. In kind it is cell-based. Conditions: filed as activator.
For test [5], the target named is T1, Keap1/Nrf2 (Homo sapiens, UniProt Q14145+Q16236). The test is described as follows: Binding affinity to human Keap1-Nrf2 protein-protein interaction assessed as inhibition constant incubated for 60 mins by fluorescent polarization assay.
T1 sequence (Q16236 whole entry): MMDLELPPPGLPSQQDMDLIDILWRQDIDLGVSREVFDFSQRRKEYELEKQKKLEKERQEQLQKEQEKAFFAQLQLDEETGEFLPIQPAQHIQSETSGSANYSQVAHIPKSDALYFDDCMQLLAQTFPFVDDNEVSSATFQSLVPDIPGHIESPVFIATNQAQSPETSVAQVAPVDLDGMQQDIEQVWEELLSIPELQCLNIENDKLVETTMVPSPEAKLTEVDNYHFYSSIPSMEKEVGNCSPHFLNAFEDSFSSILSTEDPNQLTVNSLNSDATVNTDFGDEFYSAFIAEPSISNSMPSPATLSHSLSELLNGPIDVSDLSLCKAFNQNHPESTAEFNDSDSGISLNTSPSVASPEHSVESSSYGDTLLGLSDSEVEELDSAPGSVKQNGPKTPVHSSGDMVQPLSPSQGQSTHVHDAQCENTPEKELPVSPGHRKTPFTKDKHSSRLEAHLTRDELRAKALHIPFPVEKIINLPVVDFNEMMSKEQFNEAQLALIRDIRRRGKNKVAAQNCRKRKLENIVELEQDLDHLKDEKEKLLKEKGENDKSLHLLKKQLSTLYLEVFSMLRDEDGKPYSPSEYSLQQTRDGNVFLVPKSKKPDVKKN
T1 sequence (Q14145 whole entry): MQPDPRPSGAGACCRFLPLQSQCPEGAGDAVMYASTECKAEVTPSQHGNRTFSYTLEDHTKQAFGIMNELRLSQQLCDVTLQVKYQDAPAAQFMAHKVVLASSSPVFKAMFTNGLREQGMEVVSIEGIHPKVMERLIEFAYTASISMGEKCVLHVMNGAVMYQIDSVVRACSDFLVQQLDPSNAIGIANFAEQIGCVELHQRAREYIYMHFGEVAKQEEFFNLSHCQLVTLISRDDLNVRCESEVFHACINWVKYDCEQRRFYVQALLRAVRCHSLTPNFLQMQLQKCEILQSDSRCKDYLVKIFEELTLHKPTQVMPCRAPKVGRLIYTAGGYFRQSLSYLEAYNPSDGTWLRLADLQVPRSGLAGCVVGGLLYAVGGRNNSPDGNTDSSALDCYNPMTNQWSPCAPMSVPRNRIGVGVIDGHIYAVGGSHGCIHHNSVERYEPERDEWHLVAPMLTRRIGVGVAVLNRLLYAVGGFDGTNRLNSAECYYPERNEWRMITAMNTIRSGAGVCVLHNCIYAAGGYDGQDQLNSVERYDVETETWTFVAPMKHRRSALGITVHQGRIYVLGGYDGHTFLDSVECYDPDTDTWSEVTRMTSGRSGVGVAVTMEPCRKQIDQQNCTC
Test [6] concerns the target T1, Keap1/Nrf2. The test is described as follows: Binding affinity to human Keap1-Nrf2 protein-protein interaction assessed as dissociation constant. In kind it is protein assay.
The target of test [7] is Amyloid-beta precursor protein (Homo sapiens, UniProt P05067). The test is described as follows: Inhibition of amyloid beta 42 (unknown origin) self aggregation by Thioflavin T-based fluorometric assay.
Chain of Amyloid-beta precursor protein (P05067 whole entry): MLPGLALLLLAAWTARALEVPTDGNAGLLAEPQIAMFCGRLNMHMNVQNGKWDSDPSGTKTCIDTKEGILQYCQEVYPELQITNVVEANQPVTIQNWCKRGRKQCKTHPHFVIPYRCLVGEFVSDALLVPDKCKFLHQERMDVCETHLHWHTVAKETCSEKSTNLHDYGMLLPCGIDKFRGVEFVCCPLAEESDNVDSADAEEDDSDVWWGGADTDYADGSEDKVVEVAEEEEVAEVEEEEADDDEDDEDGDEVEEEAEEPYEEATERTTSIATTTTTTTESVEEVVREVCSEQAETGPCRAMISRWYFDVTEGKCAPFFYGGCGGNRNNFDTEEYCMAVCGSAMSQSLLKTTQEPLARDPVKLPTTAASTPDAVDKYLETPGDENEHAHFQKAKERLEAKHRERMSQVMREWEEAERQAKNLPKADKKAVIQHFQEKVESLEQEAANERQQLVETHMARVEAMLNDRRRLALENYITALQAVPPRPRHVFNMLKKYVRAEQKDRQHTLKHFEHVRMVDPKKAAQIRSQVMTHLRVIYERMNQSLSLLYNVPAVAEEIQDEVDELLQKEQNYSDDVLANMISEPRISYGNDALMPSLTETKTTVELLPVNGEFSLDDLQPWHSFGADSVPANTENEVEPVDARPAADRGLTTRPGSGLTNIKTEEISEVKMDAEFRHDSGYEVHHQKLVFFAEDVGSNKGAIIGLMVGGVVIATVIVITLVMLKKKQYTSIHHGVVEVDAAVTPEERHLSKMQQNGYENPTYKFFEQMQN
Test [8] has as its target T2, Nuclear factor erythroid 2-related factor 2 (Mus musculus) (UniProt Q60795).
T2 sequence (whole entry): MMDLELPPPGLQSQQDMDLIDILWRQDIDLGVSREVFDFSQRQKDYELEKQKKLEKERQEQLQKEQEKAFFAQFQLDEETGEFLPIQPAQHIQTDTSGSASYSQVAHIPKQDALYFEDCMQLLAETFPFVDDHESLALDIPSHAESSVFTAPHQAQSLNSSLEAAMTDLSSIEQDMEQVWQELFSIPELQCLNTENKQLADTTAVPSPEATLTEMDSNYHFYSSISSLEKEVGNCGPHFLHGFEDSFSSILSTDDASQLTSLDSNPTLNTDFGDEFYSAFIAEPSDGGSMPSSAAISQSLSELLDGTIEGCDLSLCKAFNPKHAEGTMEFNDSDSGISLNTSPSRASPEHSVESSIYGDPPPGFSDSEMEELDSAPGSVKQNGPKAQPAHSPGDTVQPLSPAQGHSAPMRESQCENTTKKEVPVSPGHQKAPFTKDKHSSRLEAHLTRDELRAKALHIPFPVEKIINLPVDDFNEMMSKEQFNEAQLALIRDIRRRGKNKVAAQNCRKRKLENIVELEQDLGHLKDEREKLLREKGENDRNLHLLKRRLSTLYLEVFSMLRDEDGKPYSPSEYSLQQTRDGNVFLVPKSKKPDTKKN
Nature of the test: Activation of Nrf2 pathway in mouse BV-2 cells assessed as fold increase in HO-1 level at 5 uM measured after 3 hrs by Western blot analysis. In kind it is cell-based. The following applies: filed as activator. In general terms: In western blotting, separated proteins are transferred to a membrane and probed.

The target of test [9] is T2, Nuclear factor erythroid 2-related factor 2 (Mus musculus). Nature of the test: Activation of Nrf2 in mouse BV-2 cells assessed as increase in GCLC mRNA expression by measuring fold change at 5 uM measured for 3 hrs by qRT-PCR analysis. In kind it is cell-based. The following applies: filed as activator.
For test [10] the target is unchanged. Nature of the test: Activation of Nrf2 in mouse BV-2 cells assessed as increase in GCLM mRNA expression by measuring fold change at 5 uM incubated for 3 hrs by qRT-PCR analysis. In kind it is cell-based. Conditions: filed as activator.

Chain of Keap1/Nrf2 (Homo sapiens, UniProt Q14145) (Q16236 whole entry, the tested form may be a part): as the sequence (Q16236 whole entry) above
Chain of Keap1/Nrf2 (Homo sapiens, UniProt Q14145) (Q14145 whole entry, the tested form may be a part): as the sequence (Q14145 whole entry) above

Consider `COc1ccccc1S(=O)(=O)/C=C/c1ccccc1F`, for which the Activity in test [1] worked out at 24%.

Turning to `O=[N+]([O-])c1ccc(Sc2nnc(Cc3ccccc3)n2-c2ccccc2)nc1`, in test [2], the CD stood at 0.3 µM.

With `COc1ccccc1S(=O)(=O)/C=C/c1ccc(Cl)cc1`, in test [1], the Activity is reported as 31.5%.

For orientation: IC50 means the concentration that inhibits the measured activity by half. For `COc1ccc(S(=O)(=O)Nc2ccc(N(CC(N)=O)S(=O)(=O)c3ccc(OC)cc3)c3ccccc23)cc1`, it took 0.0257 µM to reach half-maximal inhibition in [3] (IC50). The same compound showed an Activity in [4] of 1.8 nM.

In general, Ki refers to a dissociation constant, usually derived from enzyme kinetics or from competition with a known ligand. With `O=C(NCC1CCCO1)C1CCC([N+](=O)[O-])S1` (centres undefined), the Ki in test [5] was 6.15 µM.

In general, Kd refers to the equilibrium constant for the complex coming apart. In the case of `[H]/N=C(\N/C(=N/[H])NCCCCCCNC(=N)NC(=N)Nc1ccc(Cl)cc1)Nc1ccc(Cl)cc1` [CHLORHEXIDINE], the Kd in test [6] was below 30 µM.

As to `O=[N+]([O-])c1ccc(Sc2nnc(COc3ccccc3)n2-c2ccccc2)nc1`, the CD in test [2] was determined as 2.5 µM.

The compound `CNC(=O)[C@]12CCC(C)(C)C[C@H]1C1C(=O)C=C3[C@@]4(C)C=C(C#N)C(=O)C(C)(C)[C@@H]4CC[C@@]3(C)[C@]1(C)CC2` (some centres undefined) registered a CD in test [2] of 0.001 µM.

Compound `O=[N+]([O-])c1ccc(Sc2nnc(COc3ccccc3)[nH]2)nc1` showed a CD in test [2] of 7.5 µM.

Take `C=CCSC(=O)/C=C/c1ccc(O)c(O)c1`: in test [7], the IC50 was determined as 12.5 µM.

As for `CC(=O)O[C@H]1CC(C)(C)C(=C=C/C(C)=C/C=C/C(C)=C/C=C/C=C(C)/C=C/C=C(\C)C(=O)C[C@@]23O[C@]2(C)C[C@@H](O)CC3(C)C)[C@](C)(O)C1`, the fold change (FC) was found to be 2.02 in test [8], 2.39 in test [9] and 2.39 in [10].

Take `CC1(C)CC[C@]2(C(=O)O)CC[C@]3(C)C(C(=O)C=C4[C@@]5(C)C=CC(=O)C(C)(C)[C@@H]5CC[C@]43C)[C@@H]2C1` (some centres undefined): the CD in test [2] was 0.28 µM.

For the compound `COc1ccccc1S(=O)(=O)/C=C/c1ccccc1Cl`, the Activity in test [1] is 15.2%.

The compound `COC(=O)[C@]12CCC(C)(C)C[C@H]1C1C(=O)C=C3[C@@]4(C)C=C(C(=O)O)C(=O)C(C)(C)[C@@H]4CC[C@@]3(C)[C@]1(C)CC2` (some centres undefined) came in with a CD in test [2] of 0.018 µM.

As for `CC1(C)CC[C@]2(C(=O)O)CC[C@]3(C)C(C(=O)C=C4[C@@]5(C)C=C(C(=O)O)C(=O)C(C)(C)[C@@H]5CC[C@]43C)[C@@H]2C1` (some centres undefined), in test [2], the CD is 0.22 µM.

In the case of `COC(=O)[C@]12CCC(C)(C)C[C@H]1C1C(=O)C=C3[C@@]4(C)C=C(C#N)C(=O)C(C)(C)[C@@H]4CC[C@@]3(C)[C@]1(C)CC2` (some centres undefined), the CD in test [2] was 0.001 µM.

As for `COc1ccccc1S(=O)(=O)/C=C/c1cccc(Cl)c1`, the Activity in test [1] turned out to be 32.1%.

In turn, `Nc1ccc(Sc2nnc(COc3ccccc3)n2-c2ccccc2)nc1` showed a CD in test [2] of 2.5 µM.

On to `CC1(C)CC[C@]2(C#N)CC[C@]3(C)C(C(=O)C=C4[C@@]5(C)C=C(C#N)C(=O)C(C)(C)[C@@H]5CC[C@]43C)[C@@H]2C1` (some centres undefined), for which the CD in [2] was 0.00027 µM.

On to `O=[N+]([O-])c1ccc(Sc2nnc(COc3ccccc3)n2-c2ccccc2)cc1`, for which the CD in test [2] is 10 µM.

For the compound `COc1ccccc1S(=O)(=O)/C=C/c1ccccc1C(F)(F)F`, in test [1], the Activity turned out to be 29.9%.
